Test results published in patent publication US20220387365A1, “TUCARESOL DERIVATIVES AND USES THEREOF” (BeyondSpring Pharmaceuticals, Inc., priority 2019, published 2022).
Blank lines part the entries; values can stand above or below the compound they belong to.

Legend:
[1] = Intravenous and oral dosing pharmacokinetic screen, plasma concentration by LC/MS/MS; design: species or system C57BL/6 mice; conditions: in vivo; for concentration at 0.083 h / concentration at 0.25 h / concentration at 0.5 h / concentration at 2 h / concentration at 4 h / concentration at 1 h / concentration at 8 h / concentration at 24 h: B02 concentration
Procedure: (§1) Tucaresol, Compound B02, Compound C01, Compound C02-1, and Compound C02 were dosed once, by IV bolus (3 mg/kg in 20% hydroxyprophyl-13-cyclodextrin with 1 eq NaOH) or PO (10 mg/kg in 1% carboxymethylcellulose/0.1% tween-80 in water), to non-fasted male C57BL/6 mice. Animals were bled from the dorsal metatarsal vein (from the heart for 24 hour time point) for K2-EDTA plasma 0.083 (for IV only), 0.25, 0.5, 1, 2, 4, 8, and 24 hours after dosing. The plasma concentration of the dosed tucaresol or compound were measured by LC/MS/MS (I-CMS-8060 instrument for MS). PK parameters were then calculated with WinNonlin 6.1. For Compounds C01, CO2 and CO2-1, stability in C57BL/6 K2EDTA plasma was also evaluated at 22° C. over 1 hour by utilizing LC.

[2] = Stability in C57BL/6 K2EDTA plasma at 22° C. over 1 hour by LC; assay type: in vitro ADME, mouse; conditions: for mouse plasma stability (in words): 22° C.; for Remaining %: mouse plasma, 2,000 ng/mL, 22°C
Procedure: as §1
Compounds C01 and C02-1 are unstable at 22° C.

[3] = male, C57BL/6, mouse, iv, 3 mg/kg, 0.083 h
[4] = male, C57BL/6, mouse, iv, 3 mg/kg, 0.25 h
[5] = male, C57BL/6, mouse, iv, 3 mg/kg, 2 h
[6] = male, C57BL/6, mouse, iv, 3 mg/kg, 4 h
[7] = male, C57BL/6, mouse, iv, 3 mg/kg, 8 h
[8] = male, C57BL/6, mouse, iv, 3 mg/kg
[9] = male, C57BL/6, mouse, iv, 3 mg/kg, Mean
[10] = male, C57BL/6, mouse, po, 10 mg/kg, 0.25 h
[11] = male, C57BL/6, mouse, po, 10 mg/kg, 0.5 h
[12] = male, C57BL/6, mouse, po, 10 mg/kg, 1 h
[13] = male, C57BL/6, mouse, po, 10 mg/kg, 2 h
[14] = male, C57BL/6, mouse, po, 10 mg/kg, 4 h
[15] = male, C57BL/6, mouse, po, 10 mg/kg, 8 h
[16] = male, C57BL/6, mouse, po, 10 mg/kg
[17] = male, C57BL/6, mouse, po, 10 mg/kg, Mean
[18] = male, C57BL/6, mouse, iv, 3 mg/kg, 0.5 h
[19] = male, C57BL/6, mouse, iv, 3 mg/kg, 1 h

- AUClast/D ([1]; male, C57BL/6, mouse): 24.3 ng·h/mL per mg/kg
- T1/2 ([1]; male, C57BL/6, mouse): 5.49 h
- Tmax ([1]; male, C57BL/6, mouse): 5.42 h
- Tucaresol plasma concentration, Mean [1, 3]: 12.5 ng/mL
- Tucaresol plasma concentration, Mean [1, 4]: 6.01 ng/mL
- Tucaresol plasma concentration, Mean [1, 5]: 4.30 ng/mL
- Tucaresol plasma concentration, Mean [1, 6]: 7.04 ng/mL
- Tucaresol plasma concentration, Mean [1, 7]: 8.52 ng/mL
- concentration at 0.083 h [1, 8]: 3220 ng/mL
- concentration at 0.25 h [1, 8]: 1740 ng/mL
- concentration at 0.5 h [1, 8]: 335 ng/mL
- concentration at 2 h [1, 8]: 179 ng/mL
- concentration at 4 h [1, 8]: 43.4 ng/mL
- concentration at 0.083 h [1, 9]: 3050 ng/mL
- concentration at 0.25 h [1, 9]: 1340 ng/mL
- concentration at 0.5 h [1, 9]: 283 ng/mL
- concentration at 1 h [1, 9]: 48.3 ng/mL
- concentration at 2 h [1, 9]: 187 ng/mL
- concentration at 4 h [1, 9]: 54 ng/mL
- concentration at 8 h [1, 9]: 18 ng/mL
- Tucaresol plasma concentration, Mean [1, 10]: 16.2 ng/mL
- Tucaresol plasma concentration, Mean [1, 11]: 9.3 ng/mL
- Tucaresol plasma concentration, Mean [1, 12]: 5.54 ng/mL
- Tucaresol plasma concentration, Mean [1, 13]: 11.0 ng/mL
- Tucaresol plasma concentration, Mean [1, 14]: 15.7 ng/mL
- Tucaresol plasma concentration, Mean [1, 15]: 28.4 ng/mL
- concentration at 0.25 h [1, 16]: 5780 ng/mL
- concentration at 0.5 h [1, 16]: 3370 ng/mL
- concentration at 4 h [1, 16]: 468 ng/mL
- concentration at 8 h [1, 16]: 114 ng/mL
- concentration at 24 h [1, 16]: 6.93 ng/mL
- concentration at 0.25 h [1, 17]: 4260 ng/mL
- concentration at 0.5 h [1, 17]: 2650 ng/mL
- concentration at 1 h [1, 17]: 674 ng/mL
- concentration at 2 h [1, 17]: 478 ng/mL
- concentration at 4 h [1, 17]: 412 ng/mL
- concentration at 8 h [1, 17]: 152 ng/mL
- concentration at 24 h [1, 17]: 10.5 ng/mL
SMILES: CO/N=C/c1c(O)cccc1OCc1ccc(C(=O)O)cc1 [Compound B02, (E)−4+((3-hydroxy-2-((methoxyimino)methyl)phenoxy)methyl)benzoic acid]

- AUClast/D ([1]; male, C57BL/6, mouse): 161 ng·h/mL per mg/kg
- T1/2 ([1]; male, C57BL/6, mouse): 13.8 h
- Tmax ([1]; male, C57BL/6, mouse): 3.33 h
- Tucaresol concentration, Mean [1, 3]: 17.3 ng/mL
- Tucaresol concentration, Mean [1, 4]: 52.9 ng/mL
- Tucaresol concentration, Mean [1, 18]: 79.9 ng/mL
- Tucaresol concentration, Mean [1, 19]: 60.5 ng/mL
- Tucaresol concentration, Mean [1, 5]: 49.3 ng/mL
- Tucaresol concentration, Mean [1, 6]: 36.0 ng/mL
- Tucaresol concentration, Mean [1, 7]: 18.2 ng/mL
- Tucaresol concentration, Mean [1, 11]: 15.9 ng/mL
- Tucaresol concentration, Mean [1, 12]: 49.9 ng/mL
- Tucaresol concentration, Mean [1, 13]: 103 ng/mL
- Tucaresol concentration, Mean [1, 14]: 114 ng/mL
- Tucaresol concentration, Mean [1, 15]: 83.0 ng/mL
- mouse plasma stability (in words) [2]: unstable
- Remaining % ([2]; 0 min): 100%
- Remaining % ([2]; 5 min): 18.9%
- Remaining % ([2]; 15 min): 16.7%
- Remaining % ([2]; 30 min): 6.56%
- Remaining % ([2]; 60 min): 2.37%
SMILES: COC(=O)c1ccc(COc2cccc(O)c2C=O)cc1 [Compound C02-1, methyl 4-((2-formyl-3-hydroxyphenoxy)methyl)benzoate]

SMILES: CC(=O)Oc1cccc(OCc2ccc(C(=O)O)cc2)c1C=O [Compound C01, 4-((3-acetoxy-2-formylphenoxy)methyl)benzoic acid]
- AUClast/D ([1]; male, C57BL/6, mouse): 4.24 ng·h/mL per mg/kg
- F ([1]; male, C57BL/6, mouse): 0.333%
- T1/2 ([1]; male, C57BL/6, mouse): 4.24 h
- Tmax ([1]; male, C57BL/6, mouse): 0.333 h
- Concentration, Compound B02 IV Plasma concentration-time data, Mean [1, 3]: 1021 ng/mL
- Concentration, Compound B02 IV Plasma concentration-time data, Mean [1, 4]: 691 ng/mL
- Concentration, Compound B02 IV Plasma concentration-time data, Mean [1, 18]: 465 ng/mL
- Concentration, Compound B02 IV Plasma concentration-time data, Mean [1, 19]: 316 ng/mL
- Concentration, Compound B02 IV Plasma concentration-time data, Mean [1, 5]: 201 ng/mL
- Concentration, Compound B02 IV Plasma concentration-time data, Mean [1, 6]: 116 ng/mL
- Concentration, Compound B02 IV Plasma concentration-time data, Mean [1, 7]: 60.9 ng/mL
- tucaresol exposure in plasma (in words) ([1]; male, C57BL/6, mouse, po): significant but lower tucaresol exposure than Compound C02 dosing
- Concentration, Compound B02 PO Plasma concentration-time data, Mean [1, 10]: 643 ng/mL
- Concentration, Compound B02 PO Plasma concentration-time data, Mean [1, 11]: 512 ng/mL
- Concentration, Compound B02 PO Plasma concentration-time data, Mean [1, 12]: 386 ng/mL
- Concentration, Compound B02 PO Plasma concentration-time data, Mean [1, 13]: 302 ng/mL
- Concentration, Compound B02 PO Plasma concentration-time data, Mean [1, 14]: 191 ng/mL
- Concentration, Compound B02 PO Plasma concentration-time data, Mean [1, 15]: 107 ng/mL
- Concentration, Compound B02 PO Plasma concentration-time data, Mean ([1]; male, C57BL/6, mouse, po, 10 mg/kg, 24 h): 7.50 ng/mL
- tucaresol exposure in plasma (in words) ([1]; mouse, po): significant exposure to tucaresol in plasma
- mouse plasma stability (in words) [2]: unstable
- Remaining % ([2]; 0 min): 100%
- Remaining % ([2]; 5 min): 15.0%
- Remaining % ([2]; 15 min): 1.07%
